Experimental data: US20240180883A1, “TREATMENT OF MIGRAINE” (Allergan Pharmaceuticals International Limited, priority 2020, published 2024)
Where two headings read alike, the source gives them in different places.

Tests used:
Format in all cases: in vivo, human
[1] = test system: adult patients with migraine; test: Phase 3 Study 2 (NCT02867709) migraine efficacy; conditions: Study 2, 50 mg
From the text: (§1) In two randomized, double-blind, placebo-controlled, Ph. […] Of the ubrogepant-treated patients in these two studies, approximately 89% were female, 82% were white, 15% were Black, and 17% were of Hispanic or Latino ethnicity. The mean age at study entry was 41 years (range of 18-75 years).
In all studies, patients were instructed to treat a migraine with moderate to severe headache pain intensity. […] Up to 23% of patients were taking preventive medications for migraine at baseline. None of these patients were on concomitant preventive medication that act on the CGRP pathway.
The primary efficacy analyses were conducted in patients who treated a migraine with moderate to severe pain. […] Pain freedom was defined as a reduction of moderate or severe headache pain to no pain, and MBS freedom was defined as the absence of the self-identified MBS (i.e., photophobia, phonophobia, or nausea). Among patients who selected an MBS, the most commonly selected was photophobia (56%), followed by phonophobia (24%) and nausea (19%).
Table 14 also presents the results of the analyses of the percentage of patients achieving pain relief at 2 hours (defined as a reduction in migraine pain from moderate or severe to mild or none) post-dose and the percentage of patients achieving sustained pain freedom between 2 to 24 hours post-dose.

[2] = Long-term safety, open-label extension study
Protocol: Long-term safety was assessed in 813 patients, dosing intermittently for up to 1 year in an open-label extension study. […] Of these 813 patients, 421 patients were exposed to 50 mg or 100 mg for at least 6 months, and 364 patients were exposed to these doses for at least one year, all of whom treated at least two migraine attacks per month, on average. […] The most common adverse reaction resulting in discontinuation in the long-term safety study was nausea.

[3] = Adverse reactions in Studies 1 and 2
From the text: as §1

[4] = Study B: drug interaction PK with rifampin; conditions: for half-life: read-out: Apparent terminal t1/2, mean (SD) (converted)
From the text: Study B (rifampin) had two treatment periods. […] All treatments were received under fasted conditions.
Healthy adults aged 19-50 years for Study A and 18-45 years for Study B were eligible to participate. […] For study B, participants had to have a BMI between 18.0 and 30 kg/m^2. Exclusion criteria for both studies included hypersensitivity to any study drug; exposure to hepatitis B virus, hepatitis C virus, or HIV; or use of any drug or substance known to affect CYP enzymes or P-gp.

[5] = Studies 1 and 2, 50 mg (N = 954)
[6] = Studies 1 and 2, 100 mg (N = 485)
[7] = coadministered with rifampin 600 mg vs alone
[8] = ubrogepant 100 mg + rifampin 600 mg
[9] = ubrogepant 100 mg alone, listed as Ubrogepant

Q: For `C[C@@H]1[C@H](c2ccccc2)C[C@H](NC(=O)c2cnc3c(c2)C[C@@]2(C3)C(=O)Nc3ncccc32)C(=O)N1CC(F)(F)F` [ubrogepant, (3′S)-N-((3S,5S,6R)-6-methyl-2-oxo-5-phenyl-1-(2,2,2-trifluoroethyl)piperidin-3-yl)-2′-oxo-1′,2′,5,7-etrahydrospiro[cyclopenta[b]pyridine-6,3′-pyrrolo[2,3-b]pyridine]-3-carboxamide], which “Most Bothersome Symptom Free at 2 hours, % Responders” value [1] is on record?
A: The value was 38.9%.

Q: What about the “Most Bothersome Symptom Free at 2 hours, Difference from Placebo” value [1] of the same compound?
A: The value was 11.5%.

Q: And the “Pain Relief at 2 hours, % Responders” value [1]?
A: The value was 62.7%.

Q: What about the “Pain free at 2 hours, % Responders” value [1] of the same compound?
A: The value was 21.8%.

Q: What about the “Pain free at 2 hours, Difference from Placebo” value [1] of the same compound?
A: Its value is 7.5%.

Q: And the “Sustained pain freedom at 2-24 hours, % Responders” value [1]?
A: Its value is 14.4%.

Q: What about the “patients withdrawn because of an adverse reaction” value ([2]; intermittent dosing for up to 1 year, 50 mg or 100 mg) of the same compound?
A: Its value is 2.5%.

Q: And the “most common adverse reaction resulting in discontinuation” value ([2]; long-term safety study)?
A: The value was “nausea”.

Q: And the “Dry Mouth” value [3, 5]?
A: The value was <1%.

Q: And the Nausea [3, 5]?
A: Its Nausea is 2%.

Q: And the “Somnolence (includes sedation and fatigue)” value [3, 5]?
A: Its value is 2%.

Q: What about the “Dry Mouth” value [3, 6] of the same compound?
A: Its value is 2%.

Q: What about the Nausea [3, 6] of the same compound?
A: The Nausea was 4%.

Q: And the “Somnolence (includes sedation and fatigue)” value [3, 6]?
A: Its value is 3%.

Q: And the “reduction in ubrogepant AUC0-t” value [4, 7]?
A: The value was 78%.

Q: What about the “reduction in ubrogepant Cmax” value [4, 7] of the same compound?
A: The value was 69%.

Q: What about the AUC(0-t) ([4]; human, plasma, oral, 100 mg, ubrogepant 100 mg alone, read-out: AUC0-t, mean (SD)) of the same compound?
A: Its AUC(0-t) is 1880 ng·h/mL.

Q: What about the AUC(0-inf) ([4]; human, plasma, oral, 100 mg, ubrogepant 100 mg alone, read-out: AUC0-∞, mean (SD)) of the same compound?
A: The AUC(0-inf) was 1910 ng·h/mL.

Q: What about the half-life ([4]; human, plasma, oral, 100 mg, ubrogepant 100 mg alone) of the same compound?
A: The half-life was 4.4 h.

Q: What about the Cmax ([4]; human, plasma, oral, 100 mg, ubrogepant 100 mg alone, read-out: Cmax, mean (SD)) of the same compound?
A: The Cmax was 416 ng/mL.

Q: What about the AUC(0-t) ([4]; human, plasma, oral, 100 mg, ubrogepant 100 mg alone, read-out: Geometric LSM AUC0-t, Reference) of the same compound?
A: Its AUC(0-t) is 1720 ng·h/mL.

Q: And the AUC(0-inf) ([4]; human, plasma, oral, 100 mg, ubrogepant 100 mg alone, read-out: Geometric LSM AUC0-∞, Reference)?
A: Its AUC(0-inf) is 1750 ng·h/mL.

Q: What about the Cmax ([4]; human, plasma, oral, 100 mg, ubrogepant 100 mg alone, read-out: Geometric LSM Cmax, Reference) of the same compound?
A: The Cmax was 375 ng/mL.

Q: What about the Tmax ([4]; human, plasma, oral, 100 mg, read-out: Tmax, median (range)) of the same compound?
A: Its Tmax is 2 h.

Q: And the Vd/F ([4]; human, plasma, oral, 100 mg, read-out: Vz/F)?
A: The Vd/F was 390 ± 174 L.

Q: What about the AUC(0-t) ([4]; human, plasma, oral, rifampin 600 mg in combination with ubrogepant 100 mg, read-out: Geometric LSM AUC0-t, Test) of the same compound?
A: Its AUC(0-t) is 378 ng·h/mL.

Q: What about the AUC(0-inf) ([4]; human, plasma, oral, rifampin 600 mg in combination with ubrogepant 100 mg, read-out: Geometric LSM AUC0-∞, Test) of the same compound?
A: The AUC(0-inf) was 379 ng·h/mL.

Q: What about the Cmax ([4]; human, plasma, oral, rifampin 600 mg in combination with ubrogepant 100 mg, read-out: Geometric LSM Cmax, Test) of the same compound?
A: Its Cmax is 118 ng/mL.

Q: What about the AUC(0-t) ([4]; human, plasma, oral, ubrogepant 100 mg + rifampin 600 mg, read-out: AUC0-t, mean (SD)) of the same compound?
A: Its AUC(0-t) is 396 ng·h/mL.

Q: What about the AUC(0-inf) ([4]; human, plasma, oral, ubrogepant 100 mg + rifampin 600 mg, read-out: AUC0-∞, mean (SD)) of the same compound?
A: Its AUC(0-inf) is 397 ng·h/mL.

Q: And the half-life ([4]; human, plasma, oral, ubrogepant 100 mg + rifampin 600 mg)?
A: The half-life was 3 h.

Q: And the Cmax ([4]; human, plasma, oral, ubrogepant 100 mg + rifampin 600 mg, read-out: Cmax, mean (SD))?
A: Its Cmax is 136 ng/mL.

Q: And the “Apparent terminal t1/2, mean (SD)” value [4, 8]?
A: Its value is 3.04 (0.64) h.

Q: What about the CL/F [4, 8] of the same compound?
A: The CL/F was 282.87 ± 103.74 L/h.

Q: What about the CL/F ([4]; ubrogepant 100 mg alone) of the same compound?
A: Its CL/F is 62.77 ± 28.33 L/h.

Q: And the “Tmax, median (range)” value ([4]; ubrogepant 100 mg alone)?
A: The value was 2 h.

Q: And the “Apparent terminal t1/2, mean (SD)” value [4, 9]?
A: Its value is 4.36 (0.75) h.

Q: What about the “Tmax, median (range)” value [4, 9] of the same compound?
A: Its value is 2.00 (1.00-4.00) h.

Q: What about the “exposure of ubrogepant on co-administration” value ([4]; with rifampin, a strong CYP3A4 inducer) of the same compound?
A: Its value is “significant reduction in ubrogepant exposure”.
